{"source": "patent US20070128217A1", "about": "(priority 2003, published 2007)", "key": {"[1]": {"tested_on": "rabbit serum obtained by immunizing a rabbit with the SARS-CoV strain Frankfurt 1", "assay_type": "binding", "parameters": "Binding of a rabbit serum to linear peptides / Binding of a rabbit serum to looped peptides / Rabbit serum linear peptides / Rabbit serum looped peptides / Binding of a rabbit serum to linear peptides of protein N of SARS-CoV Urbani (Rabbit serum linear peptides) / Binding of a rabbit serum to looped/cyclic peptides of protein N of SARS-CoV Urbani (Rabbit serum looped peptides): unit not given here"}, "[2]": {"tested_on": "antibodies in sera from SARS patients (sera 1a, 1b, 2, 6, 37, 62, London, SARS-yellow, SARS-green)", "assay_type": "binding, human", "parameters": "Binding of serum 6 to linear peptides of protein X1 of SARS-CoV Urbani / Binding of serum 37 to linear peptides of protein X1 of SARS-CoV Urbani / Binding of serum 6 to looped/cyclic peptide (PEPSCAN-ELISA) / Binding of serum 37 to looped/cyclic peptide (PEPSCAN-ELISA) / Binding of serum 37 to looped/cyclic peptides of protein X1 of SARS-CoV Urbani / Binding of serum 6 to linear peptides of protein X2 / Binding of serum 37 to linear peptides of protein X2 / Binding of serum 37 to looped/cyclic peptides of protein X2 of SARS-CoV Urbani / Binding of serum 6 to linear peptides of protein M of SARS-CoV Urbani / Binding of serum 37 to linear peptides of protein M of SARS-CoV Urbani / Binding of serum 6 to looped/cyclic peptides of protein M of SARS-CoV Urbani / Binding of serum 37 to looped/cyclic peptides of protein M of SARS-CoV Urbani / Binding of serum 6 to linear peptides of protein X3 of SARS-CoV Urbani / Binding of serum 37 to linear peptides of protein X3 of SARS-CoV Urbani / Binding of serum 37 to looped/cyclic peptides of protein X3 of SARS-CoV Urbani / Binding of serum 6 to linear peptides of protein X4 of SARS-CoV Urbani / Binding of serum 37 to linear peptides of protein X4 of SARS-CoV Urbani / Binding of serum 37 to looped/cyclic peptides of protein X4 of SARS-CoV Urbani / Binding of serum 6 to linear peptides of protein X5 of SARS-CoV Urbani / Binding of serum 37 to linear peptides of protein X5 of SARS-CoV Urbani / Binding of serum 37 to looped/cyclic peptides of protein X5 of SARS-CoV Urbani / Binding of serum 6 to linear peptides of protein N of SARS-CoV Urbani / Binding of serum 37 to linear peptides of protein N of SARS-CoV Urbani / Binding of serum 6 to linear peptide (PEPSCAN-ELISA) / Binding of serum 1a to looped/cyclic peptides of protein N of SARS-CoV Urbani / Binding of serum 1b to looped/cyclic peptides of protein N of SARS-CoV Urbani / Binding of serum 2 to looped/cyclic peptides of protein N of SARS-CoV Urbani / Binding of serum 6 to looped/cyclic peptides of protein N of SARS-CoV Urbani / Binding of serum 37 to looped/cyclic peptides of protein N of SARS-CoV Urbani / Binding of serum 62 to looped/cyclic peptides of protein N of SARS-CoV Urbani / Binding of serum London to looped/cyclic peptides of protein N of SARS-CoV Urbani / Binding of serum SARS-green to looped/cyclic peptides of protein N of SARS-CoV Urbani: unit not given here"}, "[3]": {"tested_on": "control sera (pooled serum of ten healthy LUMC hospital workers; commercial negative donor pooled serum from the Dutch bloodbank)", "assay_type": "binding, human", "parameters": "Binding of Control serum LUMC to linear peptides / Binding of Control serum Blood-bank to linear peptides / Binding of Control serum LUMC to looped peptides / Binding of Control Serum Blood-Bank to Looped peptides / Binding of Control serum LUMC to linear peptides of the protein M of SARS-CoV Urbani / Binding of Control serum Blood-bank to linear peptides of the protein M of SARS-CoV Urbani / Binding of Control serum LUMC to looped peptides of the protein M of SARS-CoV Urbani / Binding of Control Serum Blood-Bank to Looped peptides of the protein M of SARS-CoV Urbani: unit not given here"}}, "data": [{"sequence": "NSVTDTIVVTEGDGI", "values": [{"measurement": "Binding of a rabbit serum to linear peptides", "setting": "[1]", "value": 0.1}, {"measurement": "Binding of a rabbit serum to looped peptides", "setting": "[1]", "value": 0.5}, {"measurement": "Binding of serum 1a to linear peptides of protein X1 of SARS-CoV Urbani", "setting": "[2]", "value": 0.6}, {"measurement": "Binding of serum 1a to looped/cyclic peptides of protein X1 of SARS-CoV Urbani", "setting": "[2]", "value": 0.4}, {"measurement": "Binding of serum 1b to linear peptides of protein X1 of SARS-CoV Urbani", "setting": "[2]", "value": 0.5}, {"measurement": "Binding of serum 1b to looped/cyclic peptides of protein X1 of SARS-CoV Urbani", "setting": "[2]", "value": 0.3}, {"measurement": "Binding of serum 2 to linear peptides of protein X1 of SARS-CoV Urbani", "setting": "[2]", "value": 0.4}, {"measurement": "Binding of serum 2 to looped/cyclic peptides of protein X1 of SARS-CoV Urbani", "setting": "[2]", "value": 0.2}, {"measurement": "Binding of serum 6 to linear peptides of protein X1 of SARS-CoV Urbani", "setting": "[2]", "value": 0.4}, {"measurement": "Binding of serum 6 to looped/cyclic peptides of protein X1 of SARS-CoV Urbani", "setting": "[2]", "value": 0.2}, {"measurement": "Binding of serum 37 to linear peptides of protein X1 of SARS-CoV Urbani", "setting": "[2]", "value": 0.5}, {"measurement": "Binding of serum 37 to looped/cyclic peptides of protein X1 of SARS-CoV Urbani", "setting": "[2]", "value": 0.4}, {"measurement": "Binding of serum 62 to linear peptides of protein X1 of SARS-CoV Urbani", "setting": "[2]", "value": 0.4}, {"measurement": "Binding of serum 62 to looped/cyclic peptides of protein X1 of SARS-CoV Urbani", "setting": "[2]", "value": 0.4}, {"measurement": "Binding of serum London to linear peptides of protein X1 of SARS-CoV Urbani", "setting": "[2]", "value": 0.2}, {"measurement": "Binding of serum London to looped/cyclic peptides of protein X1 of SARS-CoV Urbani", "setting": "[2]", "value": 0.2}, {"measurement": "Binding of serum SARS-green to linear peptides of protein X1 of SARS-CoV Urbani", "setting": "[2]", "value": 0.2}, {"measurement": "Binding of serum SARS-green to looped/cyclic peptides of protein X1 of SARS-CoV Urbani", "setting": "[2]", "value": 0.3}, {"measurement": "Binding of serum SARS-yellow to linear peptides of protein X1 of SARS-CoV Urbani", "setting": "[2]", "value": 0.6}, {"measurement": "Binding of serum SARS-yellow to looped/cyclic peptides of protein X1 of SARS-CoV Urbani", "setting": "[2]", "value": 0.3}, {"measurement": "Binding of Control Serum Blood-Bank to Looped peptides", "setting": "[3]", "value": 0.4}, {"measurement": "Binding of Control serum Blood-bank to linear peptides", "setting": "[3]", "value": 0.3}, {"measurement": "Binding of Control serum LUMC to linear peptides", "setting": "[3]", "value": 0.4}, {"measurement": "Binding of Control serum LUMC to looped peptides", "setting": "[3]", "value": 0.5}]}, {"sequence": "ADGTRHTYQLRARSV", "values": [{"measurement": "Recognition of the peptide by the rabbit serum", "setting": "[1]", "value": "recognized"}, {"measurement": "Binding of serum 1a to linear peptides of protein X4 of SARS-CoV Urbani", "setting": "[2]", "value": 0.7}, {"measurement": "Binding of serum 1a to looped/cyclic peptides of protein X4 of SARS-CoV Urbani", "setting": "[2]", "value": 0.7}, {"measurement": "Binding of serum 1b to linear peptides of protein X4 of SARS-CoV Urbani", "setting": "[2]", "value": 0.6}, {"measurement": "Binding of serum 1b to looped/cyclic peptides of protein X4 of SARS-CoV Urbani", "setting": "[2]", "value": 0.4}, {"measurement": "Binding of serum 2 to linear peptides of protein X4 of SARS-CoV Urbani", "setting": "[2]", "value": 0.6}, {"measurement": "Binding of serum 2 to looped/cyclic peptides of protein X4 of SARS-CoV Urbani", "setting": "[2]", "value": 0.6}, {"measurement": "Binding of serum 6 to linear peptides of protein X4 of SARS-CoV Urbani", "setting": "[2]", "value": 0.5}, {"measurement": "Binding of serum 6 to looped/cyclic peptides of protein X4 of SARS-CoV Urbani", "setting": "[2]", "value": 0.7}, {"measurement": "Binding of serum 37 to linear peptides of protein X4 of SARS-CoV Urbani", "setting": "[2]", "value": 0.7}, {"measurement": "Binding of serum 37 to looped/cyclic peptides of protein X4 of SARS-CoV Urbani", "setting": "[2]", "value": 0.7}, {"measurement": "Binding of serum 62 to linear peptides of protein X4 of SARS-CoV Urbani", "setting": "[2]", "value": 0.7}, {"measurement": "Binding of serum 62 to looped/cyclic peptides of protein X4 of SARS-CoV Urbani", "setting": "[2]", "value": 0.6}, {"measurement": "Binding of serum London to linear peptides of protein X4 of SARS-CoV Urbani", "setting": "[2]", "value": 0.7}, {"measurement": "Binding of serum London to looped/cyclic peptides of protein X4 of SARS-CoV Urbani", "setting": "[2]", "value": 0.3}, {"measurement": "Binding of serum SARS-green to linear peptides of protein X4 of SARS-CoV Urbani", "setting": "[2]", "value": 0.6}, {"measurement": "Binding of serum SARS-green to looped/cyclic peptides of protein X4 of SARS-CoV Urbani", "setting": "[2]", "value": 0.5}, {"measurement": "Binding of serum SARS-yellow to linear peptides of protein X4 of SARS-CoV Urbani", "setting": "[2]", "value": 0.7}, {"measurement": "Binding of serum SARS-yellow to looped/cyclic peptides of protein X4 of SARS-CoV Urbani", "setting": "[2]", "value": 0.6}, {"measurement": "Binding of Control Serum Blood-Bank to Looped peptides", "setting": "[3]", "value": 0.6}, {"measurement": "Binding of Control serum Blood-bank to linear peptides", "setting": "[3]", "value": 0.6}, {"measurement": "Binding of Control serum LUMC to linear peptides", "setting": "[3]", "value": 0.6}, {"measurement": "Binding of Control serum LUMC to looped peptides", "setting": "[3]", "value": 0.6}]}, {"sequence": "VPLRGTIVTRPLMES", "values": [{"measurement": "Rabbit serum linear peptides", "setting": "[1]", "value": 0.1}, {"measurement": "Rabbit serum looped peptides", "setting": "[1]", "value": 0.6}, {"measurement": "Binding of serum 1a to linear peptides of protein M of SARS-CoV Urbani", "setting": "[2]", "value": 0.7}, {"measurement": "Binding of serum 1b to linear peptides of protein M of SARS-CoV Urbani", "setting": "[2]", "value": 0.6}, {"measurement": "Binding of serum 2 to linear peptides of protein M of SARS-CoV Urbani", "setting": "[2]", "value": 0.7}, {"measurement": "Binding of serum 6 to linear peptides of protein M of SARS-CoV Urbani", "setting": "[2]", "value": 0.4}, {"measurement": "Binding of serum 37 to linear peptides of protein M of SARS-CoV Urbani", "setting": "[2]", "value": 0.6}, {"measurement": "Binding of serum 62 to linear peptides of protein M of SARS-CoV Urbani", "setting": "[2]", "value": 0.5}, {"measurement": "Binding of serum London to linear peptides of protein M of SARS-CoV Urbani", "setting": "[2]", "value": 0.4}, {"measurement": "Binding of serum SARS-green to linear peptides of protein M of SARS-CoV Urbani", "setting": "[2]", "value": 0.5}, {"measurement": "Binding of serum SARS-yellow to linear peptides of protein M of SARS-CoV Urbani", "setting": "[2]", "value": 0.4}, {"measurement": "Recognition of the peptide by sera of SARS-CoV infected individuals, and form (linear, looped/cyclic) in which it is recognized", "setting": "[2]", "value": "recognized in looped/cyclic form"}, {"measurement": "Binding of Control Serum Blood-Bank to Looped peptides of the protein M of SARS-CoV Urbani", "setting": "[3]", "value": 0.6}, {"measurement": "Binding of Control serum Blood-bank to linear peptides of the protein M of SARS-CoV Urbani", "setting": "[3]", "value": 0.9}, {"measurement": "Binding of Control serum LUMC to linear peptides of the protein M of SARS-CoV Urbani", "setting": "[3]", "value": 0.6}, {"measurement": "Binding of Control serum LUMC to looped peptides of the protein M of SARS-CoV Urbani", "setting": "[3]", "value": 0.7}]}]}
